Source: publication PMC9154192 (PLoS Biology, 2022)
Read-outs that look alike come from different tables or passages of the source.

Type: in vivo, SD rats
Procedure: A subchronic toxicity study was performed for PP2S. Female and male rats were divided into a control group (0 mg/kg/day, n = 15), a low-dose group (167 mg/kg/day, n = 10), a medium-dose group (500 mg/kg/day, n = 10), and a high-dose group (1,500 mg/kg/day, n = 15), respectively. Thus, there were a total of 8 groups. The drug was administered by oral gavage at 10 mL/kg body weight daily for 4 weeks. Five animals each in the control and high-dose groups continued their treatments for 2 more weeks. Clinical symptoms were observed, and body weight was measured during the test period for a total of 6 weeks; 0.5% methyl cellulose 1,500 cP (Sigma, USA) in water for injection (JW Pharmaceutical, Korea) was used as a vehicle. Control animals were treated with only the same volume of the vehicle.
Histopathological examination was performed while performing a 4-week repeated oral toxicity study for PP2S. Organs and tissues from all animals subjected to autopsy were removed and fixed in 10% neutral buffered formalin. Among them, testes, eyeballs and optic nerve were fixed in Davidson's fixative and then in 10% neutral buffered formalin. For organs/tissues subjected to histopathological examination, specimens were prepared according to the histopathological specimen preparation SOP. For histopathological examination, organs and tissues of all subjects in the control group and the high-dose group, and macroscopically observed subjects in the low-dose group were examined. […] In addition, all other changes observed in histopathological examination were judged to be spontaneous or accidental. Those not specifically observed for all groups by organ were marked with a 'dash' symbol. Grade 1, minimal; Grade 2, slight; Grade 3, moderate; Grade 4, severe.

[1] = female, G4 1,500 mg/kg, recovery period, n=5
[2] = male, G2 167 mg/kg, dosing period, n=10
[3] = male, G3 500 mg/kg, dosing period, n=10
[4] = male, G4 1,500 mg/kg, dosing period, n=10
[5] = male, G4 1,500 mg/kg, recovery period, n=5

Structure (SMILES): CCCCOc1ccc2cc(CN3C(=O)CC[C@H]3C(=O)OC)c3cc(OC)c(OC)cc3c2c1 [PP2S, Methyl (S)-1-((3-butoxy-6,7-dimethoxyphenanthren-9-yl)methyl)-5-oxopyrrolidine-2-carboxylate]
- Kidney: Mineralization, medulla, Grade 1, no. of animals [1]: 0
- Liver: Extramedullary hematopoiesis, Grade 1, no. of animals [1]: 0
- Liver: Fatty change, sporadic/periportal, Grade 1, no. of animals [1]: 2
- Liver: Fatty change, sporadic/periportal, Grade 2, no. of animals [1]: 0
- Liver: Infiltrate, mononuclear cell, focal, Grade 1, no. of animals [1]: 4
- Liver: Infiltrate, mononuclear cell, focal, Grade 2, no. of animals [1]: 0
- Lung including bronchi: Alveolar macrophage aggregation, focal, Grade 1, no. of animals [1]: 0
- Lung including bronchi: Infiltrate, mononuclear cell, alveolar, focal, Grade 1, no. of animals [1]: 1
- Pituitary gland: Cyst, pars nervosa, Presence, no. of animals [1]: 0
- Prostate: Infiltrate, inflammatory cell, interstitium, Grade 1, no. of animals [1]: 0
- Salivary gland (parotid): Focus, hypertrophic, basophilic, focal, Grade 1, no. of animals [1]: 0
- Spleen: Pigmentation, Grade 1, no. of animals [1]: 5
- Submandibular lymph node: Increased, plasma cell, Grade 2, no. of animals [1]: 0
- Thyroid gland: Ectopic thymus, Presence, no. of animals [1]: 1
- Thyroid gland: Ultimobranchial cyst, Presence, no. of animals [1]: 2
- Adrenal gland: Vacuolation, cortical, diffuse, Grade 1, no. of animals [2]: 0
- Adrenal gland: Vacuolation, cortical, diffuse, Grade 2, no. of animals [2]: 0
- Epididymis: Infiltrate, inflammatory cell, interstitum, Grade 1, no. of animals [2]: 0
- Eye: Dysplasia, retina, focal, Grade 1, no. of animals [2]: 0
- Harderian gland: Infiltrate, inflammatory cell, focal, Grade 1, no. of animals [2]: 0
- Kidney: Basophilia, tubule, cortex, Grade 1, no. of animals [2]: 0
- Kidney: Cast, hyaline, cortex, Grade 1, no. of animals [2]: 0
- Kidney: Hydronephrosis, unilateral, Grade 3, no. of animals [2]: 0
- Kidney: Infiltrate, inflammatory cell, interstitium, Grade 1, no. of animals [2]: 0
- Kidney: Infiltrate, inflammatory cell, interstitium, Grade 2, no. of animals [2]: 0
- Kidney: Mineralization, cortex, Grade 1, no. of animals [2]: 0
- Kidney: Mineralization, corticomedullary junction, Grade 1, no. of animals [2]: 0
- Kidney: Mineralization, medulla, Grade 1, no. of animals [2]: 0
- Liver: Extramedullary hematopoiesis, Grade 1, no. of animals [2]: 0
- Liver: Fatty change, sporadic/periportal, Grade 1, no. of animals [2]: 0
- Liver: Fatty change, sporadic/periportal, Grade 2, no. of animals [2]: 0
- Liver: Infiltrate, mononuclear cell, focal, Grade 1, no. of animals [2]: 0
- Liver: Infiltrate, mononuclear cell, focal, Grade 2, no. of animals [2]: 0
- Lung including bronchi: Alveolar macrophage aggregation, focal, Grade 1, no. of animals [2]: 0
- Lung including bronchi: Infiltrate, mononuclear cell, alveolar, focal, Grade 1, no. of animals [2]: 0
- Pituitary gland: Cyst, pars nervosa, Presence, no. of animals [2]: 0
- Prostate: Infiltrate, inflammatory cell, interstitium, Grade 1, no. of animals [2]: 0
- Salivary gland (parotid): Focus, hypertrophic, basophilic, focal, Grade 1, no. of animals [2]: 0
- Spleen: Pigmentation, Grade 1, no. of animals [2]: 0
- Submandibular lymph node: Increased, plasma cell, Grade 2, no. of animals [2]: 1
- Thyroid gland: Ectopic thymus, Presence, no. of animals [2]: 0
- Thyroid gland: Ultimobranchial cyst, Presence, no. of animals [2]: 0
- Adrenal gland: Vacuolation, cortical, diffuse, Grade 1, no. of animals [3]: 0
- Adrenal gland: Vacuolation, cortical, diffuse, Grade 2, no. of animals [3]: 0
- Epididymis: Infiltrate, inflammatory cell, interstitum, Grade 1, no. of animals [3]: 0
- Eye: Dysplasia, retina, focal, Grade 1, no. of animals [3]: 0
- Harderian gland: Infiltrate, inflammatory cell, focal, Grade 1, no. of animals [3]: 0
- Kidney: Basophilia, tubule, cortex, Grade 1, no. of animals [3]: 0
- Kidney: Cast, hyaline, cortex, Grade 1, no. of animals [3]: 0
- Kidney: Hydronephrosis, unilateral, Grade 3, no. of animals [3]: 0
- Kidney: Infiltrate, inflammatory cell, interstitium, Grade 1, no. of animals [3]: 0
- Kidney: Infiltrate, inflammatory cell, interstitium, Grade 2, no. of animals [3]: 0
- Kidney: Mineralization, cortex, Grade 1, no. of animals [3]: 0
- Kidney: Mineralization, corticomedullary junction, Grade 1, no. of animals [3]: 0
- Kidney: Mineralization, medulla, Grade 1, no. of animals [3]: 0
- Liver: Extramedullary hematopoiesis, Grade 1, no. of animals [3]: 0
- Liver: Fatty change, sporadic/periportal, Grade 1, no. of animals [3]: 0
- Liver: Fatty change, sporadic/periportal, Grade 2, no. of animals [3]: 0
- Liver: Infiltrate, mononuclear cell, focal, Grade 1, no. of animals [3]: 0
- Liver: Infiltrate, mononuclear cell, focal, Grade 2, no. of animals [3]: 0
- Lung including bronchi: Alveolar macrophage aggregation, focal, Grade 1, no. of animals [3]: 0
- Lung including bronchi: Infiltrate, mononuclear cell, alveolar, focal, Grade 1, no. of animals [3]: 0
- Pituitary gland: Cyst, pars nervosa, Presence, no. of animals [3]: 0
- Prostate: Infiltrate, inflammatory cell, interstitium, Grade 1, no. of animals [3]: 0
- Salivary gland (parotid): Focus, hypertrophic, basophilic, focal, Grade 1, no. of animals [3]: 0
- Spleen: Pigmentation, Grade 1, no. of animals [3]: 0
- Submandibular lymph node: Increased, plasma cell, Grade 2, no. of animals [3]: 0
- Thyroid gland: Ectopic thymus, Presence, no. of animals [3]: 0
- Thyroid gland: Ultimobranchial cyst, Presence, no. of animals [3]: 0
- Adrenal gland: Vacuolation, cortical, diffuse, Grade 1, no. of animals [4]: 3
- Adrenal gland: Vacuolation, cortical, diffuse, Grade 2, no. of animals [4]: 1
- Epididymis: Infiltrate, inflammatory cell, interstitum, Grade 1, no. of animals [4]: 1
- Eye: Dysplasia, retina, focal, Grade 1, no. of animals [4]: 0
- Harderian gland: Infiltrate, inflammatory cell, focal, Grade 1, no. of animals [4]: 1
- Kidney: Basophilia, tubule, cortex, Grade 1, no. of animals [4]: 3
- Kidney: Cast, hyaline, cortex, Grade 1, no. of animals [4]: 1
- Kidney: Hydronephrosis, unilateral, Grade 3, no. of animals [4]: 0
- Kidney: Infiltrate, inflammatory cell, interstitium, Grade 1, no. of animals [4]: 7
- Kidney: Infiltrate, inflammatory cell, interstitium, Grade 2, no. of animals [4]: 1
- Kidney: Mineralization, cortex, Grade 1, no. of animals [4]: 0
- Kidney: Mineralization, corticomedullary junction, Grade 1, no. of animals [4]: 0
- Kidney: Mineralization, medulla, Grade 1, no. of animals [4]: 0
- Liver: Extramedullary hematopoiesis, Grade 1, no. of animals [4]: 1
- Liver: Fatty change, sporadic/periportal, Grade 1, no. of animals [4]: 4
- Liver: Fatty change, sporadic/periportal, Grade 2, no. of animals [4]: 0
- Liver: Infiltrate, mononuclear cell, focal, Grade 1, no. of animals [4]: 4
- Liver: Infiltrate, mononuclear cell, focal, Grade 2, no. of animals [4]: 0
- Lung including bronchi: Alveolar macrophage aggregation, focal, Grade 1, no. of animals [4]: 0
- Lung including bronchi: Infiltrate, mononuclear cell, alveolar, focal, Grade 1, no. of animals [4]: 2
- Pituitary gland: Cyst, pars nervosa, Presence, no. of animals [4]: 1
- Prostate: Infiltrate, inflammatory cell, interstitium, Grade 1, no. of animals [4]: 2
- Salivary gland (parotid): Focus, hypertrophic, basophilic, focal, Grade 1, no. of animals [4]: 0
- Spleen: Pigmentation, Grade 1, no. of animals [4]: 0
- Submandibular lymph node: Increased, plasma cell, Grade 2, no. of animals [4]: 0
- Thyroid gland: Ectopic thymus, Presence, no. of animals [4]: 0
- Thyroid gland: Ultimobranchial cyst, Presence, no. of animals [4]: 2
- Adrenal gland: Vacuolation, cortical, diffuse, Grade 1, no. of animals [5]: 3
- Adrenal gland: Vacuolation, cortical, diffuse, Grade 2, no. of animals [5]: 0
- Epididymis: Infiltrate, inflammatory cell, interstitum, Grade 1, no. of animals [5]: 0
- Eye: Dysplasia, retina, focal, Grade 1, no. of animals [5]: 0
- Harderian gland: Infiltrate, inflammatory cell, focal, Grade 1, no. of animals [5]: 0
- Kidney: Basophilia, tubule, cortex, Grade 1, no. of animals [5]: 1
- Kidney: Cast, hyaline, cortex, Grade 1, no. of animals [5]: 3
- Kidney: Hydronephrosis, unilateral, Grade 3, no. of animals [5]: 0
- Kidney: Infiltrate, inflammatory cell, interstitium, Grade 1, no. of animals [5]: 0
- Kidney: Infiltrate, inflammatory cell, interstitium, Grade 2, no. of animals [5]: 0
- Kidney: Mineralization, cortex, Grade 1, no. of animals [5]: 0
- Kidney: Mineralization, corticomedullary junction, Grade 1, no. of animals [5]: 0
- Kidney: Mineralization, medulla, Grade 1, no. of animals [5]: 0
- Liver: Extramedullary hematopoiesis, Grade 1, no. of animals [5]: 1
- Liver: Fatty change, sporadic/periportal, Grade 1, no. of animals [5]: 2
- Liver: Fatty change, sporadic/periportal, Grade 2, no. of animals [5]: 0
- Liver: Infiltrate, mononuclear cell, focal, Grade 1, no. of animals [5]: 3
- Liver: Infiltrate, mononuclear cell, focal, Grade 2, no. of animals [5]: 0
- Lung including bronchi: Alveolar macrophage aggregation, focal, Grade 1, no. of animals [5]: 0
- Lung including bronchi: Infiltrate, mononuclear cell, alveolar, focal, Grade 1, no. of animals [5]: 0
- Pituitary gland: Cyst, pars nervosa, Presence, no. of animals [5]: 0
- Prostate: Infiltrate, inflammatory cell, interstitium, Grade 1, no. of animals [5]: 1
- Salivary gland (parotid): Focus, hypertrophic, basophilic, focal, Grade 1, no. of animals [5]: 0
- Spleen: Pigmentation, Grade 1, no. of animals [5]: 3
- Submandibular lymph node: Increased, plasma cell, Grade 2, no. of animals [5]: 0
- Thyroid gland: Ectopic thymus, Presence, no. of animals [5]: 0
- Thyroid gland: Ultimobranchial cyst, Presence, no. of animals [5]: 1
